Data as given in patent publication US20230392180A1, “MICROSCOPIC IMAGING AND ANALYSES OF EPIGENETIC LANDSCAPE” (Sanford Burnham Prebys Medical Discovery Institute, priority 2020, published 2023).
“Also recorded” adds a separate entry of the source. Each block holds one molecule with its values, some of them ahead of it.

What was measured:
[1] = test system: primary mouse hepatocytes; experiment: MIEL-Rejuvenation in primary old hepatocytes; type: cell-based, mice; details: for outcome in high throughput screening using primary mouse hepatocytes (miBioAge): figure legends FIG. 63-65; for shift of epigenetic signature of old cells towards that of young cells: old hepatocytes
Text: To meet this challenge, techniques described herein were employed to analyze the effects of various drugs on the analysis of epigenome topography at the single cell level. Because of large numbers of cells required for drug screening, mice were used as a source of (C57BLACK/6) of liver hepatocytes (˜98% pure in the preparations) for probing whether epigenetic signature of aging is retained after short-term cultures of hepatocytes. […] The ability of hepatocytes to maintain age-related epigenetic or multiparametric signatures in cell culture conditions provides the foundation for high throughput screening.
These high content screenings using MIEL pipeline were conducted to adapt these assay conditions. Briefly, on day 0, 10,000 primary mouse hepatocytes per well were seeded in 384 well plates. Hepatocytes were isolated via a 2-step perfusion method yielding ˜98% pure population of primary hepatocytes. At 24 hrs after seeding, compounds were added in DMSO. Primary mouse hepatocytes were determined to tolerate DMSO concentrations of at least 0.1% (v/v) without adverse effects on cell growth or viability over 5 days (compared to no DMSO control). Using the Echo acoustic compound dispensing system and 10 mM stock concentration library plates, each of the drugs at concentrations up to 10 μM was sufficiently delivered. At 4 days after seeding, cells were fixed and immunolabeled with antibody to H3K9me3, H3K27me3, and H4K20me3 (initially in separate wells) to determine the efficiency of each individual mark and potential for synergy.

GBM2 cells [2] = experiment: Immunofluorescence of core TPC transcription factors and Ki67 in drug-treated cells; type: cell-based, human; details: for Sox2 expression: GBM2, 3 days treatment, Digitoxigenin 0.3 μM; for expression of the core transcription factors: GBM2, compared with serum and Bmp4; for Sall2 and Brn2 expression: GBM2, immunofluorescence
Procedure: Cell staining: Cells were rinsed with PBS and fixed in 4% paraformaldehyde in PBS for 10 min at room temperature. After blocking with PBSAT (2% BSA and 0.5% Triton X-100 in PBS) for 1 h at room temperature, the cells were incubated overnight at 4° C. with primary antibodies diluted in PBSAT. The primary antibodies are listed in Table 2, and the appropriate fluorochrome-conjugated secondary antibodies were used at 1:500 dilution. Nuclear co-staining was performed by incubating cells with Hoechst-33342 nuclear dye.
Microscopy and image analysis: Unless stated otherwise, for MIEL analysis cells were imaged on an Opera QEHS high-content screening system (PerkinElmer) using ×40 water immersion objectives. Images collected on the Opera were analyzed using Acapella 2.6 (PerkinElmer). At least 40 fields per well were acquired and at least 2 wells per population were used. Features of nuclear morphology, fluorescence intensity inter-channel co-localization, and texture features (Image moments, Haralick, Threshold Adjacency Statistics) were calculated using custom algorithms (scripts available from www.andrewslab.ca). A full list of the features used is available from the authors. Values for each cell were generated and exported to MATLAB for further analysis. For Sall2, Olig2, Brn2, Sox2, Oct4 and GFAP immunostaining, images were captured on an IC200-KIC (Vala Sciences) using a ×20 objective. Between 3 and 8 fields per well were acquired and analyzed using Acapella 2.6 (PerkinElmer). For all nuclear markers, average intensities in nucleus or fold change in average intensity compared to untreated cells are shown. Unless stated otherwise, at least 3 wells and a minimum of 300 cells for each condition were compared using unpaired two-tailed t-test was.
Microscopy and image analysis: For MIEL analysis, cells were imaged on either an Opera QEHS high-content screening system (PerkinElmer) using ×40 water immersion objectives or an IC200-KIC (Vala Sciences) using a ×20 objective. Images collected were analyzed using Acapella 2.6 (PerkinElmer). At least 40 fields/well for Opera and 5 fields/well for IC200 were acquired and at least 2 wells per population were used. Features of nuclear morphology, fluorescence intensity inter-channel co-localization, and texture features (Image moments, Haralick, Threshold Adjacency Statistics) were calculated using custom algorithms. A full list of the features used is available from the authors. Values for each cell were generated and exported to Microsoft Excel or MATLAB for further analysis. For Sall2, Olig2, Brn2, Sox2, Oct4, and GFAP immunostaining, images were captured on an IC200-KIC (Vala Sciences) using a ×20 objective. Between 3 and 8 fields per well were acquired and analyzed using Acapella 2.6 (PerkinElmer). For all nuclear markers, average intensities in nucleus or fold change compared to untreated cells are shown. Unless stated otherwise, at least 3 wells and a minimum of 300 cells for each condition were compared using the unpaired two-tailed t-test.

GBM2 cells [3] = experiment: RNAseq and transcriptomic analysis; type: cell-based, human; details: for gene expression changes (GO terms) compared with those induced by serum or BMP4 / ranking by average Euclidean distance from serum- or Bmp4-treated cells (MIEL- and gene expression-based): GBM2, 3 days; for Euclidean distance (FPKM, all expressed genes) of treated cells to serum or Bmp4 treated cells: GBM2 TPCs; for ranking by average Euclidean distance from serum- or Bmp4-treated cells (MIEL- and gene expression-based): 8 candidate compounds
Procedure: RNAseq and transcriptomic analysis: Total RNA was isolated from GBM2 cells using the RNeasy Kit (Qiagen), 0.5 ug total RNA was used for isolation of mRNAs and library preparation. Library preparation and sequencing was conducted by the SBP genomics core (Sanford-Burnham NCI Cancer Center Support Grant P30 CA030199). PolyA RNA was isolated using the NEBNext® Poly(A) mRNA Magnetic Isolation Module and barcoded libraries were made using the NEBNext® Ultra II™ Directional RNA Library Prep Kit for Illumina® (NEB, Ipswich MA). Libraries were pooled and single end sequenced (1X75) on the Illumina NextSeq 500 using the High output V2 kit (Illumina). Read data was processed in BaseSpace. Reads were aligned to Homo sapiens genome (hg19) using STAR aligner with default settings. Differential transcript expression was determined using the Cufflinks Cuffdiff package. Go term enrichment analysis was conducted using PANTHER v11 using all genes identified as differentially expressed following either serum or Bmp4 treatment. For heat maps showing fold change in expression the FPKM values in each population were divided by the average FPKM values of untreated GBM2. To highlight differences in expression levels between serum and Bmp4 treated GBM2 cells the FPKM values in each sample were z-scored. Zscore=(FPKMObservation−FPKMAverage)/FPKMSD (FPKMObservation−FPKM value obtain through sequencing; FPKMAverage−average of all FPKM values in all samples for a certain gene; FPKMSD−standard deviation of FPKM values for a certain gene). Heat maps were generated using Microsoft Excel conditional formatting function.
Correlation of transcriptomic and image-based profiles: Euclidean distance between untreated, serum or Bmp4 treated GBM2 cells (triplicates for each) was calculated using either transcriptomic data (FPKM) or texture features. Pearson's correlation coefficient (R) was transformed to a t-value using the formula (t=R×SQRT(N−2)/SQRT(1−R2) where N is the number of samples, and R is Pearson correlation coefficient, and the p-value was calculated using Excel tdist(t) function. For compound prioritization, the Euclidean distance between compound treated and serum or Bmp4 treated GBM2 cells was calculated based on either transcriptomic data (FPKM) or image features. The average distance to both serum and Bmp4 treatments was normalized to the average distance of untreated cells to serum and Bmp4.
RNAseq and transcriptomic analysis: Total RNA was isolated from GBM2 cells using the RNeasy Kit (Qiagen), 0.25 μg total RNA was used to isolate mRNAs and for library preparation. Library preparation and sequencing were conducted by the SBP genomics core (Sanford-Burnham NCI Cancer Center Support Grant P30 CA030199). PolyA RNA was isolated using the NEBNext® Poly(A) mRNA Magnetic Isolation Module, and barcoded libraries were made using the NEBNext® Ultra II™ Directional RNA Library Prep Kit for Illumina® (NEB, Ipswich MA). Libraries were pooled and single-end sequenced (1×75) on the Illumina NextSeq 500 using the High-Output V2 kit (Illumina). Read data, processed in BaseSpace, were aligned to Homo sapiens genome (hg19) using STAR aligner with default settings. Differential transcript expression was determined using the Cufflinks Cuffdiff package. For heat maps showing fold change in expression, FPKM values in each HDACi-treated population were divided by the average FPKM values of DMSO-treated GBM2 and values shown as log 2 of the ratio. Go enrichment analysis was conducted using PANTHER v11 using all genes identified as differentially expressed following either serum or Bmp4 treatment. To highlight differences in expression levels between serum- and Bmp4-treated GBM2 cells, FPKM values in each sample were z-scored. Zscore=(FPKMObservation−FPKMAverage)/FPKMSD (FPKMObservation−FPKM value obtain through sequencing; FPKMAverage−average of all FPKM values in all samples for a certain gene; FPKMSD−standard deviation of FPKM values for a certain gene). […]

TPCs = experiment: Growth rate of treated glioblastoma cells; details: GBM2, 3 days, compared with serum/Bmp4 treatment

- outcome in high throughput screening using primary mouse hepatocytes (miBioAge) [1]: positive controls
Compound: C[C@]12CC[C@@H]3c4ccc(O)cc4CC[C@H]3[C@@H]1CC[C@@H]2O [17 beta-estradiol]

Compound: C[C@]12CC[C@H](O)C[C@H]1CC[C@@H]1[C@@H]2CC[C@]2(C)[C@@H](C3=CC(=O)OC3)CC[C@]12O [Digitoxigenin]
- Sox2 expression (GBM2 cells [2]): reduce
- expression of the core transcription factors (GBM2 cells [2]): downregulate
- Sall2 and Brn2 expression (GBM2 cells [2]): significant reduction
- gene expression changes (GO terms) compared with those induced by serum or BMP4 (GBM2 cells [3]): markedly different
- Euclidean distance (FPKM, all expressed genes) of treated cells to serum or Bmp4 treated cells (GBM2 cells [3]): Neither Digitoxigenin nor Digoxin reduced the distance

Compound: C[C@H]1O[C@@H](O[C@H]2[C@@H](O)C[C@H](O[C@H]3[C@@H](O)C[C@H](O[C@H]4CC[C@@]5(C)[C@H](CC[C@@H]6[C@@H]5C[C@@H](O)[C@]5(C)[C@@H](C7=CC(=O)OC7)CC[C@]65O)C4)O[C@@H]3C)O[C@@H]2C)C[C@H](O)[C@@H]1O [Digoxin]
- Sox2 expression (GBM2 cells [2]): reduced
- expression of the core transcription factors (GBM2 cells [2]): downregulate
- Sall2 and Brn2 expression (GBM2 cells [2]): significant reduction
- gene expression changes (GO terms) compared with those induced by serum or BMP4 (GBM2 cells [3]): markedly different
- ranking by average Euclidean distance from serum- or Bmp4-treated cells (MIEL- and gene expression-based) (GBM2 cells [3]): lowest-ranking candidate
- gene expression changes (GO terms) compared with those induced by serum or BMP4 (GBM2 cells [3]; listed as digoxin): rather different
- Euclidean distance (FPKM, all expressed genes) of treated cells to serum or Bmp4 treated cells (GBM2 cells [3]): Neither Digitoxigenin nor Digoxin reduced the distance
- growth rate of drug-treated cells (TPCs): stronger reduction; also recorded: cytostatic
- growth rate of drug-treated cells (TPCs; listed as digoxin): cytostatic

- outcome in high throughput screening using primary mouse hepatocytes (miBioAge) [1]: hits to be tested in animal models
Compound: COc1ncc(-c2ccc3nccc(-c4ccnnc4)c3c2)cc1NS(=O)(=O)c1ccc(F)cc1F [GSK2126458]

- outcome in high throughput screening using primary mouse hepatocytes (miBioAge) [1]: hits to be tested in animal models
Compound: CC(C)n1nc(-c2ccc3oc(N)nc3c2)c2c(N)ncnc21 [INK128]

- outcome in high throughput screening using primary mouse hepatocytes (miBioAge) [1]: positive controls
Compound: CN(C)C(=N)N=C(N)N [Metformin]

- outcome in high throughput screening using primary mouse hepatocytes (miBioAge) [1]: positive controls
Compound: CC(Cc1ccc(O)c(O)c1)C(C)Cc1ccc(O)c(O)c1 (centres unmarked) [NDGA]
- shift of epigenetic signature of old cells towards that of young cells [1]: Statistically significant dose-dependent shifts

- outcome in high throughput screening using primary mouse hepatocytes (miBioAge) [1]: hits to be tested in animal models
Compound: Cn1c(=O)n(-c2ccc(C(C)(C)C#N)cc2)c2c3cc(-c4cnc5ccccc5c4)ccc3ncc21 [NVP-BEZ235]

- outcome in high throughput screening using primary mouse hepatocytes (miBioAge) [1]: inactive molecules
Compound: NC(=O)c1ccc[n+]([C@@H]2O[C@H](COP(=O)([O-])O)[C@@H](O)[C@H]2O)c1 [Nicotiamide mononucleotide, Nicotinamide mononucleotide]

- outcome in high throughput screening using primary mouse hepatocytes (miBioAge) [1]: inactive molecules
Compound: O=C(O)C(Cc1c[nH]c2ccccc12)N1C(=O)c2ccccc2C1=O (centres unmarked) [RG108]

Compound: CC(=O)Oc1ccccc1C(=O)O [aspirin]
- shift of epigenetic signature of old cells towards that of young cells [1]: Statistically significant dose-dependent shifts

Compound: COc1cc([C@@H]2c3cc4c(cc3[C@@H](O[C@@H]3O[C@@H]5CO[C@@H](C)O[C@H]5[C@H](O)[C@H]3O)[C@H]3COC(=O)[C@H]23)OCO4)cc(OC)c1O [etoposide]
- ranking by average Euclidean distance from serum- or Bmp4-treated cells (MIEL- and gene expression-based) (GBM2 cells [3]): top candidate

- outcome in high throughput screening using primary mouse hepatocytes (miBioAge) [1]: inactive molecules
Compound: NC(=O)c1ccc[n+]([C@@H]2O[C@H](CO)[C@@H](O)[C@H]2O)c1 [nicotinamide riboside]
